According to patent US9290440B2, “Bicyclic compound” (TOA EIYO LTD., priority 2012, dated 2016):

What follows are compounds tested on abdominal aorta ring specimen (assay: Evaluation of blood vessel relaxing function (phenylephrine-contracted abdominal aorta ring)). Settings: relaxation of rat abdominal aorta contracted with 1 μmol/L phenylephrine; without vs with 10 μmol/L ODQ.
Description: The representative compounds of the present invention were evaluated by blood vessel relaxing function according to the following Test Example. In the assay, bleeding from the upper part of a heart of a rat (male, SD) was performed under anesthesia with pentobarbital (30 mg/kg) and then abdominal aorta was extracted. The connecting tissue adhered around blood vessel was removed from the abdominal aorta in an ice-cooled Krebs-Henseleit solution (KH solution) (118 mmol/L sodium chloride, 4.7 mmol/L potassium chloride, 1.2 mmol/L magnesium sulfate, 1.2 mmol/L potassium dihydrogen phosphate, 25 mmol/L sodium hydrogen carbonate, 2.5 mmol/L calcium chloride, and 10 mmol/L glucose, pH 7.4). After that, a ring specimen with length of 2 mm was prepared and fixed in 5 mL organ bath filled with a KH solution. The KH solution was kept at 37° C. and aerated with a mixture gas of 95% O2 and 5% CO2. The specimen was stabilized for 1 hour with static tension of 1 g. The KH solution was exchanged twice during that time. The tension on the specimen was recorded on a multi-channel recorder via pickup and amplifier. After the stabilization of the specimen, contraction was caused by using 1 μmol/L phenylephrine (Phe), and cumulative administration of each compound (0.001, 0.01, 0.03, 0.1, 0.3, 1, 3, 10, 30, 100, 1000, 10000 nmol/L) was performed. For the evaluation of a case in which 1H-1,2,4-oxadiazole-(4,3a)-quinoxalin-1-one (ODQ) is contained, 10 μmol/L ODQ was added 10 minutes before the Phe addition, and the same evaluation as above was performed.
EC50 value was calculated using four-parameter logistics model using Assay Explorer (Accelrys). The test compound solution was dissolved in DMSO such that the concentration of each test compound is 1000 times the final concentration.

EC50 Ratio (ODQ−/ODQ+) | SMILES
12.4 | O=C(O)CCCCN(CCc1ccccc1OCc1ccc(CCc2ccccc2)cc1)Cc1ccc(C(=O)O)cc1 [Cinaciguat, reference compound]
9.0 | O=C(O)CCCCN(CCc1ccccc1OCc1ccc(SCc2ccccc2)cc1)C1CCCc2cc(C(=O)O)ccc21 (stereo not drawn) [Example 15, 5-{N-[2-[2-(4-Benzylsulfanylbenzyloxyl)phenyl]ethyl]-N-(4-carboxybutyl)amino}-5,6,7,8-tetrahydronaphthalene-2-carboxylic acid]
5.0 | O=C(O)CCCCN(CCc1ccccc1OCc1cccc2c1CCCC2)C1CCCc2cc(C(=O)O)ccc21 (stereo not drawn) [Example 29, 5-{N-(4-Carboxybutyl)-N-[2-[2-(5,6,7,8-tetrahydronaphthalene-1-ylmethoxy)phenyl]ethyl]amino}-5,6,7,8-tetrahydronaphthalene-2-carboxylic acid]
